Series [1] deals with T1, HCV NS3 protease (Hepatitis C virus genotype 1b, UniProt P26663).
T1 construct: The protein fragments contain variants of the protease domain of the HCV NS3 protein; added initiator Met (ATG start codon) (N); made in house
The series can be described thus: Competitive inhibition of NS3 protease by decapeptides P6-P4' modified at position P1. In kind it is biochemical. Here is the method:
(§1) Cleavage was detected by separating the substrate from the hydrolysis products by reverse-phase HPLC. For this purpose the mixture containing the buffer and the peptide incubated with the protease was injected into a reverse-phase Lichrospher RP-18 column (Merck) and eluted with an acetonitrile gradient containing 0.10% trifluoracetic acid. The cleavage products were identified by co-injection of appropriate standards, and by mass spectrometry. For these experiments, proteins produced by one of the methods described in examples 1 and 2 were used.
(§2) Dependence of the activity on temperature was analysed by means of an Arrhenius plot in which the logarithm of the kinetic constant Kcat is given as an inverse function of temperature.

A further series deals with T2, NS3 protease (Hepatitis C virus genotype 1b, UniProt P26663).
T2 construct: The protein fragments contain variants of the protease domain of the HCV NS3 protein; added initiator Met (ATG start codon) (N); made in house
T2 sequence (P26663 1027-1208): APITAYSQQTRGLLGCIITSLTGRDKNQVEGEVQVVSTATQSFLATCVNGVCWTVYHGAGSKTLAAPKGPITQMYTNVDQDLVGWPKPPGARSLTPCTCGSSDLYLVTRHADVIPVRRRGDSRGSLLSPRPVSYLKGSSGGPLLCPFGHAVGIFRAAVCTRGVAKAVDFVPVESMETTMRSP
In kind it is biochemical, hepatitis C virus (HCV). From the text:
Using the HPLC-based assay, the following kinetic parameters were obtained for the radioactive depsipeptide substrate S1 (SEQ ID NO:44):
Synthesis of the radioactive depsipeptide substrates allows set-up of a high-throughput assay for determination of NS3 protease activity as schematically illustrated in FIG. 11. The principle is the following: both the intact substrate and the N-terminal fragment that originates from enzyme cleavage (Ac-Asp-Glu-Met-Glu-Glu-Abu-OH) (SEQ ID NO:49) are extremely acid, whereas the C-terminal fragment [HO-CH(CH3)CO-Ser-His-Leu-Pro-Tyr-Lys(N^ε -[^3 H]-CH3 CO)-NH2 ] (SEQ ID NO:50) is, according to pH, neutral or basic. It is therefore possible to capture the two acidic species on an anionic exchange resin, leaving the C-terminal fragment in solution. If the C-terminal fragment contains a radioactive marker (in this case the tritiated acetate covalently bonded to the ε-amino group of the C-terminal lysine), the resin will be able to discriminate processed substrate from non-processed substrate, thus making it possible to quantify proteolytic activity by measuring the amount of radioactivity remaining in solution after incubation with the enzyme and treatment with the ion exchanger. […]
Purification to >98% homogeneity was achieved through preparative HPLC on a Nucleosyl C-18 column (250×21 mm, 7 μm) using as eluents (A) 50 mM ammonium acetate, pH 6 and (B) acetonitrile. […] The kinetic parameters for this substrate, evaluated through the HPLC-based assay (see FIG. 14A), were the following:
The buffer used for the assay is the following: 33 mM DTT, 50 mM Tris, pH 7, 50% glycerol, 2% CHAPS. […] The assay can be run in a cuvette or in a (96-well) microtitre plate, monitoring the fluorescence as a function of time (Excitation wavelength […], Emission wavelength […]). The increase in fluorescence upon substrate cleavage is 13-fold. […]

In the next series the target is T3, HCV protease (Hepatitis C virus genotype 1b, UniProt P26663).
T3 construct: added initiator Met (ATG start codon) (N); made in house; host or cells: E. coli BL21(DE3)
T3 sequence (P26663 1027-1206): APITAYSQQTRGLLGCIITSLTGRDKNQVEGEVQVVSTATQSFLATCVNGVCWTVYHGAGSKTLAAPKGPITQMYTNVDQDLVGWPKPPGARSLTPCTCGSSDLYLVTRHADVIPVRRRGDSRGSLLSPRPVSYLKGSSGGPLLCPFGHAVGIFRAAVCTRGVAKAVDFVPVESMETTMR
The series can be described thus: Effect of chymostatin on HCV protease activity. In kind it is biochemical. To be noted: 100 μg/ml used in homogenisation. On the procedure:
1. Homogenisation in the presence of 100 μg/ml of the chymostatin protease inhibitor. […] In this way it was possible to purify a single molecular species with more than 95% of form 2.

The subject of series [2] is HCV NS3 protease. Particulars: Example 4 amide substrate. On the procedure: as §1, §2
Another series relates to NS3 protease + Pep4A. The series can be described thus: Automatic assay using a radioactive amide substrate with anionic exchanger capture. Particulars: 3 hours at 23° C., 40 μM unlabeled peptide, 200 nM protease, 1 μM Pep4A. In kind it is biochemical, hepatitis C virus (HCV).
Chain of NS3 protease + Pep4A (P26663 1039-1206, other chains not shown): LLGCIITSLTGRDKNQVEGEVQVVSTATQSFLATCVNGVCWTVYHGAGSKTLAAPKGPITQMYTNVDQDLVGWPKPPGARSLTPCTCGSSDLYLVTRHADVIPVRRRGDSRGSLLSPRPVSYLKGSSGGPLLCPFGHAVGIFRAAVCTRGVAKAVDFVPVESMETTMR
Series [3] concerns CSCC[C@H](NC(=O)[C@H](CCC(=O)O)NC(=O)[C@H](CC(=O)O)NC(C)=O)C(=O)N[C@@H](CCC(=O)O)C(=O)N[C@@H](CCC(=O)O)C(=O)N[C@@H](CS)C(=O)N[C@@H](C)C(=O)N[C@@H](CO)C(=O)N[C@@H](Cc1c[nH]cn1)C(=O)N[C@@H](CC(C)C)C(=O)O. The series is described as follows: HPLC assay of peptide substrate cleavage by purified NS3 protease in the presence of Pep4A. In kind it is biochemical, hepatitis C virus (HCV). Particulars: other: Table 2, stoichiometric concentration, pH 7.5, 25.0 °C. The source says:
(§3) As mentioned above, the protein NS4A is a cofactor of HCV protease. N and C-terminal deletion experiments have defined the peptide Pep4A with the sequence indicated in SEQ ID NO:6, as the minimum domain still capable of inducing optimal activation. In transfection or in vitro translation experiments the addition of polypeptides containing the minimum NS4A sequence is essential to give effective cleavage. […] The kinetic characteristics of this activation are described below. Using a titration experiment a stoichiometry of 1:1 was determined for this interaction at a concentration of […] of protease, indicating a Kd<300 nM.
(§4) These kinetics were obtained both in the absence and in the presence of stechiometric concentrations of Pep4A. […] When the Km values for the single substrates are compared it becomes evident that the presence of two negative charges in P5 and in P6 determined the bonding effectiveness of a peptide substrate.

The test system of series [4] is CC(=O)N[C@@H](CC(=O)O)C(=O)N[C@@H](CS)C(=O)N[C@@H](CO)C(=O)N[C@H](C(=O)N1CCC[C@H]1C(=O)N[C@@H](CS)C(=O)N[C@@H](CO)C(=O)NCC(=O)N[C@@H](CO)C(=O)N[C@@H](Cc1c[nH]c2ccccc12)C(=O)O)[C@@H](C)O. The description is as above. In kind it is biochemical, hepatitis C virus (HCV). To be noted: other: Table 2, stoichiometric concentration, pH 7.5, 25.0 °C.
From the text: as §3, §4

The subject of series [5] is CSCC[C@H](NC(=O)[C@H](CO)NC(=O)[C@H](CS)NC(=O)[C@H](CS)NC(=O)[C@@H](NC(=O)[C@@H](NC(=O)[C@H](CC(=O)O)NC(=O)[C@H](CCC(=O)O)NC(C)=O)C(C)C)C(C)C)C(=O)N[C@@H](CO)C(=O)N[C@@H](Cc1ccc(O)cc1)C(=O)O. The series is described as above. In kind it is biochemical, hepatitis C virus (HCV). Particulars: other: Table 2, stoichiometric concentration, pH 7.5, 25.0 °C.
From the text: as §3, §4

The mark [6] stands for this setting: radioactive depsipeptide substrates, HPLC-based assay.

The source of these data is patent US6197536A, “Methodology to produce, and purify and assay polypeptides with the proteolytic activity of the HCV NS3 protease” (priority 1995, dated 2001).

Non-standard residues stand in square brackets, D forms with d. Residues, ends and D or L forms follow the SMILES beside them. No end group written: not given here. *: point of attachment. Dabcyl = CN(C)c1ccc(N=Nc2ccc(C(=O)*)cc2)cc1; EDANS = O=S(=O)(O)c1cccc2c(NCCN*)cccc12; AllylGly = C=CC[C@H](N)C(=O)O; Abu = CC[C@H](N)C(=O)O; Lac = C[C@H](O)C(=O)O

T1 sequence (P26663 1027-1208): as the sequence (P26663 1027-1208) above
Chain of HCV NS3 protease (P26663 1039-1206 limits assumed): as the sequence (P26663 1039-1206, other chains not shown) above
Procedure for NS3 protease + Pep4A: 400,000 cpm of the labelled peptide with a specific activity of 2-10 Ci/mmol. were incubated for 3 hours at 23° C. together with 40 μM (Km /2) of unlabeled peptide in the presence of 200 nM protease and 1 μM of Pep4A in 50 mM Tris pH 7.5, 50% glycerol, 3% CHAPS, 10 mM DTT. […] The fraction coming out of the exchanger is filtered, allowed to sediment or spun. The radioactivity is measured on the clear fraction, the amount of which is exclusively related to the right fragment (C-terminal), given that the amide substrate and the left hand fragment remain bound to the anionic exchanger. The addition of inhibitors causes a decrease in the release rate of the labelled cleaved fragment.

At HCV NS3 protease [1], `CC[C@H](NC(=O)[C@H](CCC(=O)O)NC(=O)[C@H](CCC(=O)O)NC(=O)[C@H](CCSC)NC(=O)[C@H](CCC(=O)O)NC(=O)[C@H](CC(=O)O)NC(C)=O)C(=O)N[C@@H](C)C(=O)N[C@@H](CO)C(=O)N[C@@H](Cc1c[nH]cn1)C(=O)N[C@@H](CC(C)C)C(=O)O` [Abu] (Ac-DEMEE[Abu]ASHL-OH) came in with a Ki of 175 µM.

In turn, `C=CC[C@H](NC(=O)[C@H](CCC(=O)O)NC(=O)[C@H](CCC(=O)O)NC(=O)[C@H](CCSC)NC(=O)[C@H](CCC(=O)O)NC(=O)[C@H](CC(=O)O)NC(C)=O)C(=O)N[C@@H](C)C(=O)N[C@@H](CO)C(=O)N[C@@H](Cc1c[nH]cn1)C(=O)N[C@@H](CC(C)C)C(=O)O` [Alg] (Ac-DEMEE[AllylGly]ASHL-OH) gave a Ki on HCV NS3 protease [1] of 165 µM.

On to `CC[C@H](NC(=O)[C@H](CCC(=O)O)NC(=O)[C@H](CCC(=O)O)NC(=O)[C@H](CC(=O)NCCNc1cccc2c(S(=O)(=O)O)cccc12)NC(=O)[C@H](CCC(=O)O)NC(=O)[C@H](CC(=O)O)NC(C)=O)C(=O)O[C@@H](C)C(=O)N[C@@H](CO)C(=O)N[C@@H](CCCCNC(=O)c1ccc(N=Nc2ccc(N(C)C)cc2)cc1)C(N)=O` [S3, Ac-Asp-Glu-Asp-(EDANS)-Glu-Glu-Abu-.psi.[COO)-Ala-Ser-Lys-(DABCYL)NH2] (Ac-DED(EDANS)EE[Abu][Lac]SK(Dabcyl)-NH2), for which the “kcat /Km” value on NS3 protease (fluorogenic depsipeptide, same buffer) is 5342 M⁻¹ s⁻¹.

Consider `CC(C)C[C@H](NC(=O)[C@@H](NC(=O)N[C@@H](Cc1ccccc1)C(=O)O)[C@@H]1CCN=C(N)N1)C(=O)N[C@H](C=O)Cc1ccccc1` [chymostatin], for which the “inhibition of HCV protease activity” value against HCV protease is given as “does not inhibit”.

“Ac-Asp-Glu-Met-Glu-Glu-Abu-.psi.-[COO]-Ala-Ser-His-Leu-Pro-Tyr-Lys(N^ ε -[^3 H]-CH3 CO)-NH2 [SEQ ID NO:44]”: at NS3 protease (setting [6]), the Michaelis constant (Km) is 11 µM and the catalytic constant (kcat) is 9 min⁻¹.

Consider “Ac-Asp-Glu-Met-Glu-Glu-Cys-Ala-Ser-His-Leu-Pro-Tyr-Lys-ε-(^3 H)Ac (XEMEECASHLPYX; N-acetyl; tritiated epsilon-acetyl) [SEQ ID NO:47]”, for which, in the series with HCV NS3 protease [2], the Km came out at 79 µM, the kcat amounted to 0.49 min⁻¹ and the “kcat /Km” value amounted to 103 M⁻¹ s⁻¹. Moreover, the peptide substrate cleaved in the series with NS3 protease + Pep4A is on record as 20%.

The compound Ac-DEMEEAASHL [Ala] returned a Ki at HCV NS3 protease [1] of 173 µM.

With Ac-DEMEETASHL [Thr], the Ki on HCV NS3 protease [1] stood at 215 µM.

Ac-DEMEEVASHL [Val] displayed a Ki on HCV NS3 protease [1] of 173 µM.

Turning to “HCV NS3 protease + Pep4A (NS4A cofactor peptide) (Hepatitis C virus (isolate BK))”, in series [3], the Km came out at 43 µM, the kcat is 1.4 min⁻¹ and the kcat/Km came to 540 M⁻¹ s⁻¹. Also, the Km in series [4] turned out to be 320 µM. Further, in series [5], the Km is 380 µM, the kcat amounted to 15 min⁻¹ and the kcat/Km turned out to be 650 M⁻¹ s⁻¹.
